Data set [1] in a line: Physical stability of solid forms in stability chamber, solid form checked by XRPD. Type of data set: physicochemical. Conditions: for Physical stability (solid form by XRPD compared with initial solid form): 40° C./75%-RH, 1 month; for Stability compared with Form Amorphous: comparison in words, accelerated storage 40° C./75%-RH. The protocol:
40 mg compound (I) in different solid forms were stored in a stability chamber with temperature and humidity controlled at 40° C. and 75%-RH, respectively. After 1 month, the samples were analyzed by XRPD to check their solid form and compared with their initial solid form.

Data set [2] is described as follows: Apparent solubility study in bio-relevant media. Type of data set: physicochemical. To be noted: for Solubility: 25° C.; for Solubility / solubility at 24 h: 24 hours; for Apparent solubility compared with Form Amorphous: comparison in words; for solubility at 24 h: 25 °C, thermodynamic from solid. The protocol: Apparent solubility was determined by suspending 5 mg of compound (I) in different bio-relevant media including pH buffers, SGF, FaSSIF, and FeSSIF. The suspensions were equilibrated at 25° C. for 24 hours. The suspensions were then filtered through a 0.22 μm PVDF filter into a 2-mL HPLC vial. The quantitation of the filtrate was conducted by HPLC with reference to a standard solution.

Data set [3] in a line: Solid form conversion in aqueous compositions. Type of data set: physicochemical. On the procedure:
Form A as prepared in Example 10 was suspended in water to form a slurry at room temperature for 2 hours to afford Form B, then the solid was collected by filtration and dried under vacuum. Depending on the solvation status Form B can be a solvate, a hydrate or a polymorph of compound (I).

Data set [4] can be described thus: Single dose PK (SDPK) study, oral suspension. Type of data set: in vivo, Wistar Han rat. Conditions: for Cmax / Tmax: male, plasma, Wistar Han rat, n = 5; for Cmax: read-out: Cmax of Compound (I) (double prodrug) in plasma; for Tmax: read-out: Tmax of Compound (I) (double prodrug) in plasma. The protocol:
Five male Wistar Han rats were administered a single oral dose of 100 or 200 mg/kg of compound (I) (either Form A or Form C). Drug was administered as a suspension in 2% klucel, 0.1% polysorbate 80 and 0.1% parabens in water. Samples were taken at various times up to 24 h and plasma was analysed for compound (I) (double prodrug), compound (Ia) (single prodrug) and compound (Ib) (single prodrug) and compound (III) (active Form).

Read-outs that look alike come from different tables or passages of the source. Some results are limits rather than exact numbers.

This is an account of results in patent publication US12012421B2, “Solid forms of [(1S)-1-[(2S,4R,5R)-5-(5-amino-2-oxo-thiazolo[4,5-d]pyrimidin-3-yl)-4-hydroxy-tetrahydrofuran-2-yl]propyl] acetate” (Hoffmann-La Roche Inc., priority 2018, dated 2024).

As usually defined, the Solubility is the concentration that dissolves in the medium under given conditions. A word on the solubility: it is the dissolved amount per volume that the medium holds. As usually defined, the Cmax is the maximum level reached in the sampled fluid or tissue. The term Tmax denotes the time from dosing to the highest level.

On to `CC[C@H](OC(C)=O)[C@@H]1C[C@@H](O)[C@H](n2c(=O)sc3cnc(N)nc32)O1` [Form G of compound (I), [(1S)-1-[(2S,4R,5R)-5-(5-amino-2-oxo-thiazolo[4,5-d]pyrimidin-3-yl)-4-hydroxy-tetrahydrofuran-2-yl]propyl] acetate], for which the “Physical stability (solid form by XRPD compared with initial solid form)” value in data set [1] (listed as Example 12, Form G of compound (I)) was “no solid form change”. Also, the figures for the “Stability compared with Form Amorphous” value in data set [1] and in data set [1] (listed as Form G) were “improved stability” and “better stability”, respectively. Moreover, the Solubility was 2490 µg/mL in data set [2] (FaSSIF, listed as Example 12, Form G of compound (I)); 2790 µg/mL in data set [2] (FeSSIF, listed as Example 12, Form G of compound (I)); over 10000 µg/mL in data set [2] (SGF, listed as Example 12, Form G of compound (I)); over 10000 µg/mL in data set [2] (pH1 buffer, listed as Example 12, Form G of compound (I)); 6440 µg/mL in data set [2] (pH3 buffer, listed as Example 12, Form G of compound (I)); 3750 µg/mL in data set [2] (pH5 buffer, listed as Example 12, Form G of compound (I)). The Solubility turned out to be 3700 µg/mL in data set [2] (pH7 buffer, listed as Example 12, Form G of compound (I)) and 3640 µg/mL in data set [2] (pH9 buffer, listed as Example 12, Form G of compound (I)). Besides, the “Apparent solubility compared with Form Amorphous” value in data set [2] is on record as “comparable apparent solubility”.

In the case of `CC[C@H](OC(C)=O)[C@@H]1C[C@@H](O)[C@H](n2c(=O)sc3cnc(N)nc32)O1` [Form B of compound (I), [(1S)-1-[(2S,4R,5R)-5-(5-amino-2-oxo-thiazolo[4,5-d]pyrimidin-3-yl)-4-hydroxy-tetrahydrofuran-2-yl]propyl] acetate], the “Physical stability (solid form by XRPD compared with initial solid form)” value in data set [1] (listed as Example 11, Form B of compound (I)) was “no solid form change”. Besides, the “Stability compared with Form Amorphous” value in data set [1] is reported as “better stability”. Also, the Solubility in data set [2] (FaSSIF, listed as Example 11, Form B of compound (I)) was 3820 µg/mL; in data set [2] (FeSSIF, listed as Example 11, Form B of compound (I)), 4130 µg/mL; in data set [2] (SGF, listed as Example 11, Form B of compound (I)) it was over 10000 µg/mL; in data set [2] (pH1 buffer, listed as Example 11, Form B of compound (I)), over 10000 µg/mL; in data set [2] (pH3 buffer, listed as Example 11, Form B of compound (I)) it was 6920 µg/mL; in data set [2] (pH5 buffer, listed as Example 11, Form B of compound (I)), 3350 µg/mL. Moreover, the Solubility in data set [2] (pH7 buffer, listed as Example 11, Form B of compound (I)) was 3400 µg/mL; in data set [2] (pH9 buffer, listed as Example 11, Form B of compound (I)), 3550 µg/mL. Further, in data set [3], the “Solid form conversion / stability in aqueous environment” value is given as “better stability in aqueous environment”.

On to `CC[C@H](OC(C)=O)[C@@H]1C[C@@H](O)[C@H](n2c(=O)sc3cnc(N)nc32)O1` [Form Amorphous of compound (I), [(1S)-1-[(2S,4R,5R)-5-(5-amino-2-oxo-thiazolo[4,5-d]pyrimidin-3-yl)-4-hydroxy-tetrahydrofuran-2-yl]propyl] acetate], for which, in data set [1] (listed as Example 1, Form Amorphous of compound (I)), the “Physical stability (solid form by XRPD compared with initial solid form)” value is “solid form change”. Further, the “Tendency to form change” value in data set [1] (general finding in words) was “prone to crystallization”. In addition, the Solubility in data set [2] (FaSSIF, listed as Example 1, Form Amorphous of compound (I)) stood at 6930 µg/mL; in data set [2] (FeSSIF, listed as Example 1, Form Amorphous of compound (I)) it was 7350 µg/mL; in data set [2] (pH3 buffer, listed as Example 1, Form Amorphous of compound (I)), 9570 µg/mL; in data set [2] (pH5 buffer, listed as Example 1, Form Amorphous of compound (I)), 3830 µg/mL; in data set [2] (pH7 buffer, listed as Example 1, Form Amorphous of compound (I)), 4050 µg/mL; in data set [2] (pH9 buffer, listed as Example 1, Form Amorphous of compound (I)), 5030 µg/mL. Also, the solubility at 24 h in data set [2] (SGF, simulated gastric fluid) was over 10000 µg/mL; in data set [2] (pH 1 buffer, pH 1, simulated gastric fluid, pH1 buffer) it was over 10000 µg/mL.

Turning to `CC[C@H](OC(C)=O)[C@@H]1C[C@@H](O)[C@H](n2c(=O)sc3cnc(N)nc32)O1` [Form A of compound (I), [(1S)-1-[(2S,4R,5R)-5-(5-amino-2-oxo-thiazolo[4,5-d]pyrimidin-3-yl)-4-hydroxy-tetrahydrofuran-2-yl]propyl] acetate], in data set [1] (listed as Example 10, Form A of compound (I)), the “Physical stability (solid form by XRPD compared with initial solid form)” value is “no solid form change”. Moreover, the “Stability compared with Form Amorphous” value in data set [1] was “better stability”. Also, the Solubility was 6330 µg/mL in data set [2] (FaSSIF, listed as Example 10, Form A of compound (I)); 7930 µg/mL in data set [2] (FeSSIF, listed as Example 10, Form A of compound (I)); over 16360 µg/mL in data set [2] (SGF, listed as Example 10, Form A of compound (I)); over 16280 µg/mL in data set [2] (pH1 buffer, listed as Example 10, Form A of compound (I)); 12870 µg/mL in data set [2] (pH3 buffer, listed as Example 10, Form A of compound (I)); 6390 µg/mL in data set [2] (pH5 buffer, listed as Example 10, Form A of compound (I)). Also, the Solubility in data set [2] (pH7 buffer, listed as Example 10, Form A of compound (I)) turned out to be 6240 µg/mL; in data set [2] (pH9 buffer, listed as Example 10, Form A of compound (I)), 6380 µg/mL. Moreover, the “Conversion rate to the single prodrug in vivo” value in data set [4] (Form A at 100 mg/kg compared with Form C at 200 mg/kg, in words) is on record as “faster conversion rate”. Moreover, the Cmax in data set [4] (PO 100 mg/kg) is 563 ng/mL. Besides, in data set [4] (PO 100 mg/kg), the Tmax stood at 90 min.

As for `CC[C@H](OC(C)=O)[C@@H]1C[C@@H](O)[C@H](n2c(=O)sc3cnc(N)nc32)O1` [Form C of compound (I), [(1S)-1-[(2S,4R,5R)-5-(5-amino-2-oxo-thiazolo[4,5-d]pyrimidin-3-yl)-4-hydroxy-tetrahydrofuran-2-yl]propyl] acetate], the “Physical stability (solid form by XRPD compared with initial solid form)” value in data set [1] (listed as Example 2, Form C of compound (I)) was “no solid form change”. Also, the figures for the “Stability compared with Form Amorphous” value in data set [1] and in data set [1] (listed as Form C) were “significantly improved stability” and “better stability”, respectively. For the same molecule, the Solubility in data set [2] (FaSSIF, listed as Example 2, Form C of compound (I)) is 2190 µg/mL; in data set [2] (FeSSIF, listed as Example 2, Form C of compound (I)) it was 2780 µg/mL; in data set [2] (SGF, listed as Example 2, Form C of compound (I)) it was over 10000 µg/mL; in data set [2] (pH1 buffer, listed as Example 2, Form C of compound (I)), over 10000 µg/mL; in data set [2] (pH3 buffer, listed as Example 2, Form C of compound (I)) it was 4980 µg/mL; in data set [2] (pH5 buffer, listed as Example 2, Form C of compound (I)), 2240 µg/mL. Besides, the Solubility is 2190 µg/mL in data set [2] (pH7 buffer, listed as Example 2, Form C of compound (I)) and 2320 µg/mL in data set [2] (pH9 buffer, listed as Example 2, Form C of compound (I)). Besides, in data set [2], the “Apparent solubility compared with Form Amorphous” value is reported as “comparable apparent solubility”. In addition, the Cmax in data set [4] (PO 200 mg/kg) stood at 259 ng/mL. In addition, in data set [4] (PO 200 mg/kg), the Tmax turned out to be 19.8 min.
